Test results taken from patent US20240101552A1, “CARBONYL HETEROCYCLIC COMPOUND AND APPLICATION THEREOF” (SHANGHAI PHARMACEUTICALS HOLDING CO., LTD., priority 2020, published 2024).

Molecular target: LANCL2 (Homo sapiens (Human), UniProt Q9NS86)
Assay: SPR (BIACORE S200) kinetic determination of LANCL2-small molecule interactions
Type: binding
Conditions: for Kd: immobilized LANCL2, 1:1 binding model, pH 6.5, 25° C.; for Rmax (RU): maximum binding force
Procedure: 1.1 Reagent Materials • Ligand: LANCL2 • Running buffer: 20 mM MES, 150 mM NaCl, 0.05% P20, pH 6.5, 1% DMSO
Injection conditions for small molecule compounds: a flow rate of 30 μL/min, a binding time of 60 s, a dissociation time of 300 s.
Running buffer: 20 mM MES, 150 mM NaCl, 0.05% P20, pH 6.5, 1% DMSO.
Sample chamber temperature: 25° C.; analysis temperature: 25° C.
Kinetic determination of LANCL2-small molecule interactions was performed. The kinetic parameters of small molecules BT-11 and L-1 to 60 (analytes) binding to LANCL2 (ligand) were determined using BIACORE S200. Data were generated in triplicate in a dose-dependent manner (5-8 titration points) and analyzed to determine binding models (Langmuir, conformational shifts, etc.), real-time association and dissociation constants, and equilibrium dissociation constants. SPR technology allows the validation of specific LANCL2-phytochemical interactions as well as an increased insight into the gold standard of binding mechanisms and rates. Experiments were performed on carboxymethyl polydextrose (CM5) sensor chips by amine-coupled covalent attachment of LANCL2. Data were analyzed with BIACORE S200T200 evaluation software (version 1), so as to determine affinity binding constants (KD) using a 1:1 binding model.
An optical technique for detecting molecular interactions, SPR, was used to measure the binding affinity between LANCL2 and a ligand thereof (compound to be tested). Purified recombinant LANCL2 protein was immobilized on a BIACORE sensor chip and small molecules were injected onto the protein surface using an equipment of microfluidic system. The change in total mass on the chip surface, corresponding to a small binding to the protein, was measured. […] The equilibrium dissociation constant (Kd) was often used to describe the affinity between a ligand and a protein, such as affinity degree of a ligand binding to a specific protein. Ligand-protein affinity was affected by non-covalent intermolecular interactions between two molecules, such as hydrogen bonding, electrostatic interactions, hydrophobic bonds and van der Waals forces. The steady-state affinity (Kd) for each interaction could be measured by plotting equilibrium binding levels against compound concentrations.

Chain of LANCL2 (Q9NS86 whole entry, species assumed): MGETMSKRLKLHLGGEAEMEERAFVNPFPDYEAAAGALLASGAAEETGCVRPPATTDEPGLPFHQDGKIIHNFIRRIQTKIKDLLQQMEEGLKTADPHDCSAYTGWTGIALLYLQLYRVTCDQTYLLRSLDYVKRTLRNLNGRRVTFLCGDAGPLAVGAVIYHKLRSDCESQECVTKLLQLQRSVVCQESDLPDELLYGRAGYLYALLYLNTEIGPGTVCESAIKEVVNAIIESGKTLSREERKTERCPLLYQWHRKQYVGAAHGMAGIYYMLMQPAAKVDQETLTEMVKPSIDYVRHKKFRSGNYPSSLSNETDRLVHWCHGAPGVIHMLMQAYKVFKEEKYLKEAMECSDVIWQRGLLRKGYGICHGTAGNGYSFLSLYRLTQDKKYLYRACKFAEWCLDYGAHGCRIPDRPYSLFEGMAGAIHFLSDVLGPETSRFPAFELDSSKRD

Structure (SMILES) | Kd [µM] | Rmax (RU) | binding activity compared with positive reference compound BT-11
Cc1cn(-c2cccc(C(=O)N3CC4C(C3)C4NC(=O)c3cccc(-c4nc5ccccc5[nH]4)n3)c2)cn1 [Embodiment L-93, 6-(1H-benzo[d]imidazol-2-yl)-N-(3-(3-(4-methyl-1H-imidazol-1-yl)benzoyl)-3-azabicyclo[3.1.0]hexane-6-yl)picolinamide] | 5.84 | 8 | 
Cc1ccc(C(=O)N2CCC3(CCN(C(=O)c4cccc(-c5cn6ccccc6n5)c4)CC3)CC2)cc1NC1=CC(=O)c2ccccc2C1=O [Embodiment L-95, 2-((5-(9-(3-(imidazo[1,2-a]pyridin-2-yl)benzoyl)-3,9-diazaspiro[5.5]undecane-3-carbonyl)-2-methylphenyl)amino)naphthalene-1,4-dione] | 2.09 | 5.2 | better binding activities than the positive reference compound BT-11
O=C(NC1C2CN(C(=O)c3cccc(-c4nc5ccccc5[nH]4)n3)CC21)c1ccnc(Nc2ccccc2)n1 [Embodiment L-23, N-(3-(6-(1H-benzo[d]imidazol-2-yl)picolinoyl)-3-azabicyclo[3.1.0]hexan-6-yl)-2-(phenylamino)pyrimidine-4-carboxamide] | 10.3 | 7.5 | 
O=C(c1cccc(-c2nc3ccccc3[nH]2)n1)N1CCC2(CCCN(C(=O)c3cccc(-c4nc5ccccc5[nH]4)n3)C2)CC1 [Embodiment L-58, (2,9-diazaspiro[5.5]undecane-2,9-diyl)bis(6-(1H-benzo[d]imidazol-2-yl)pyridin-2-yl)methanone] | 21.5 | 3.3 | 
O=C(NC1CCN(C(=O)c2ccnc(Nc3ccccc3)n2)CC1)c1cccc(Nc2ccccc2)n1 [Embodiment L-81, 6-(phenylamino)-N-(1-(2-(phenylamino)pyrimidine-4-carbonyl)piperidin-4-yl)picolinamide] | 23 | 10.5 | 
O=C(c1cccc(-c2nc3ccccc3[nH]2)n1)N1CC2CC1CN2C(=O)c1ccnc(N2CCOCC2)n1 [Embodiment L-18, (5-(6-(1H-benzo[d]imidazol-2-yl)picolinoyl)-2,5-diazabicyclo[2.2.1]heptan-2-yl)(2-morpholinopyrimidin-4-yl)methanone] | 127 | 5.2 | 
O=C(c1cccc(-c2nc3ccccc3[nH]2)n1)N1CCC(c2nc3ccccc3[nH]2)CC1 [Embodiment L-57, (4-(1H-benzo[d]imidazol-2-yl)piperidin-1-yl)(6-(1H-benzo[d]imidazol-2-yl)pyridin-2-yl)methanone] | 8.02 | 8 | 
Cc1ccc(C(=O)N2CC3C(C2)C3NC(=O)c2cccc(-c3nc4ccccc4[nH]3)n2)cc1NC1=CC(=O)c2ccccc2C1=O [Embodiment L-91] | 1.71 | 5.2 | 
NC(=O)c1sccc1NC(=O)c1ccc(C(=O)N2CCN(C(=O)c3cccc(-c4nc5ccccc5[nH]4)n3)CC2)cc1 [Embodiment L-115, 3-(4-(4-(6-(1H-benzo[d]imidazol-2-yl)picolinoyl)piperazine-1-carbonyl)benzamido)thiophene-2-carboxamide] | 17.7 | 20.8 | 
O=C(NC1C2CN(C(=O)c3cccc(-c4nc5ccccc5[nH]4)n3)CC21)c1ccnc(N2CCOCC2)n1 [Embodiment L-14, N-(3-(6-(1H-benzo[d]imidazol-2-yl)picolinoyl)-3-azabicyclo[3.1.0]hexan-6-yl)-2-morpholinopyrimidine-4-carboxamide] | 21.1 | 7.1 | 
O=C(N[C@H]1[C@@H]2CN(C(=O)c3cccc(Nc4ccccc4)n3)C[C@@H]21)c1cccc(Nc2ccccc2)n1 [Embodiment L-101] | 23.3 | 5.5 | 
O=C(NC1CCN(C(=O)c2cccc(-c3nc4ccccc4[nH]3)n2)CC1)C1CCCC(c2nc3ccccc3[nH]2)C1 [Embodiment L-20] | 43.3 | 5.3 | 
Cc1ccc(C(=O)N2CCN(C(=O)c3cccc(-c4nc5ccccc5[nH]4)n3)CC2)cc1NC1=CC(=O)c2ccccc2C1=O [Embodiment L-116, 2-((5-(4-(6-(1H-benzo[d]imidazol-2-yl)picolinoyl)piperazine-1-carbonyl)-2-methylphenyl)amino)naphthalene-1,4-dione] | 14.8 | 32.5 | 
NC(=O)c1sccc1NC(=O)c1ccc(C(=O)N2CCC3(CC2)CCN(C(=O)c2cccc(-c4cn5ccccc5n4)c2)CC3)cc1 [Embodiment L-96, 3-(4-(9-(3-(imidazo[1,2-a]pyridin-2-yl)benzoyl)-3,9-diazaspiro[5.5]undecane-3-carbonyl)benzamido)thiophene-2-carboxamide] | 1.91 | 2.3 | better binding activities than the positive reference compound BT-11
O=C(c1cccc(-c2nc3ccccc3[nH]2)n1)N1CCC2(CC1)CCN(C(=O)c1ccnc(Nc3ccccc3)n1)CC2 [Embodiment L-27, (9-(6-(1H-benzo[d]imidazol-2-yl)picolinoyl)-3,9-diazaspiro[5.5]undecan-3-yl)(2-(phenylamino)pyrimidin-4-yl)methanone] | 13.3 | 6.5 | 
Cc1cn(-c2cccc(C(=O)N3CCN(C(=O)c4cccc(-c5nc6ccccc6[nH]5)n4)CC3)c2)cn1 [Embodiment L-117, (4-(6-(1H-benzo[d]imidazol-2-yl)picolinoyl)piperazin-1-yl)(3-(4-methyl-1H-imidazol-1-yl)phenyl)methanone] | 27 | 3.2 | 
O=C(c1cccc(-c2cn3ccccc3n2)c1)N1CC2CN(C(=O)c3cccc(-c4cn5ccccc5n4)c3)CC2C1 [Embodiment L-74, (tetrahydropyrrolo[3,4-c]pyrrole-2,5(1H,3H)-diyl)bis((3-(imidazo[1,2-a]pyridin-2-yl)phenyl)methanone)] | 25.8 | 0.102 | 
O=C(c1cccc(Nc2ccccc2)n1)N1CC2CN(C(=O)c3cccc(-c4nc5ccccc5[nH]4)n3)CC2C1 [Embodiment L-46, (5-(6-(1H-benzo[d]imidazol-2-yl)picolinoyl)hexahydropyrrolo[3,4-c]pyrrol-2(1H)-yl)(6-(phenylamino)pyridin-2-yl)methanone] | 30.4 | 10.6 | 
O=C(NC1CCN(C(=O)c2cccc(-c3cn4ccccc4n3)c2)CC1)c1cccc(-c2cn3ccccc3n2)c1 [Embodiment L-88, 3-(imidazo[1,2-a]pyridin-2-yl)-N-(1-(3-(imidazo[1,2-a]pyridin-2-yl)benzoyl)piperidin-4-yl)benzamide] | 16.4 | 9.7 | 
Cc1cn(-c2cccc(C(=O)N3CCC4(CCN(C(=O)c5cccc(-c6cn7ccccc7n6)c5)CC4)CC3)c2)cn1 [Embodiment L-92, (9-(3-(imidazo[1,2-a]pyridin-2-yl)benzoyl)-3,9-diazaspiro[5.5]undecan-3-yl)(3-(4-methyl-1H-imidazol-1-yl)phenyl)methanone] | 58.8 | 11 | 
O=C(c1ccc(-c2nc3ccccc3[nH]2)nc1)N1CCC2(CCN(C(=O)c3cccc(-c4nc5ccccc5[nH]4)n3)C2)C1 [Embodiment L-60, (7-(6-(1H-benzo[d]imidazol-2-yl)nicotinoyl)-2,7-diazaspiro[4.4]nonan-2-yl)(6-(1H-benzo[d]imidazol-2-yl)pyridin-2-yl)methanone] | 27.4 | 3.6 | 
O=C1CCC(C(=O)N2CC3CN(C(=O)c4cccc(-c5nc6ccccc6[nH]5)n4)CC3C2)=NN1 [Embodiment L-121, 6-(5-(6-(1Hbenzo[d]imidazol-2-yl)picolinoyl)octahydropyrrolo[3,4-c]pyrrole-2-carbonyl)-4,5-dihydropyridazin-3(2H)-one] | 20.8 | 2.3 | 
O=C(NC1CCN(C(=O)c2cccc(-c3cn4ccccc4n3)c2)CC1)c1ccnc(Nc2ccccc2)n1 [Embodiment L-42, N-(1-(3-(imidazo[1,2-a]pyridin-2-yl)benzoyl)piperidin-4-yl)-2-(phenylamino)pyrimidine-4-formamide] | 13.2 | 12 | 
